Common to all, as to type: biochemical
In one assay the target is ROCK1 (Homo sapiens, UniProt Q13464). Nature of the assay: In vitro inhibitory activity assay ROCK1 (ADP-Glo). To be noted: ATP 200 μM, Cheng-Prusoff; read-out: ROCK 1 (Ki, range of activity). How it is done: (§1) In Vitro Inhibitory Activity Assay Description ROCK1 and ROCK2
(§2) The effectiveness of compounds of the present invention to inhibit Rho kinase activity can be determined in a 10 μl assay containing 40 mM Tris pH7.5, 20 mM MgCl2 0.1 mg/mL BSA, 50 μM DTT and 2.5 μM peptide substrate (Myelin Basic Protein) using an ADP-Glo kit (Promega). Compounds were dissolved in DMSO such that the final concentration of DMSO was 1% in the assay. All reactions/incubations are performed at 25° C. Compound (2 ul) and either Rho kinase 1 or 2 (4 μl) were mixed and incubated for 30 mins. Reactions were initiated by addition of ATP (4 μl) such that the final concentration of ATP in the assay was 200 μM. After a 1 hour incubation 10 μl of ADP-Glo Reagent was added and after a further 1 hour incubation 20 ul of Kinase Detection Buffer was added and the mixture incubated for a further 45 minutes. The luminescent signal was measured on a luminometer. […] Compounds were tested in dose-response format and the inhibition of kinase activity was calculated at each concentration of compound. To determine the IC50 (concentration of compound required to inhibit 50% of the enzyme activity) data were fit to a plot of % inhibition vs Log 10 compound concentration using a sigmoidal fit with a variable slope and fixing the maximum to 100% and the minimum to 0%. To determine the Ki values the Cheng-Prusoff equation was utilized (Ki=IC50/(1+[S]/Km).
For orientation: In ADP-Glo the light output rises with the ADP produced.

The next assay has as its target PKA (Homo sapiens, UniProt P17612). The assay is described as follows: In vitro inhibitory activity assay for PKA (ADP-Glo), reported as selectivity ratio vs ROCK2. Conditions: Ki value for PKA divided by Ki value of ROCK2. How it is done:
In Vitro Inhibitory Activity Assay Description for PKA
The effectiveness of compounds of the present invention to inhibit PKA activity can be determined in a 10 μl assay containing 40 mM Tris pH7.5, 20 mM MgCl2 0.1 mg/ml BSA, 50 μM DTT and 260 μM peptide substrate (kemptide) using an ADP-Glo kit (Promega). Compounds were dissolved in DMSO such that the final concentration of DMSO was 1% in the assay. All reactions/incubations are performed at 25° C. Compound and PKA enzyme (6 μl) were mixed and incubated for 30 mins. Reactions were initiated by addition of ATP (4 μl) such that the final concentration of ATP in the assay was 10 μM. After a 30 minute incubation 10p of ADP-Glo Reagent was added and after a further 1 hour incubation 20 μl of Kinase Detection Buffer was added and the mixture incubated for a further 45 minutes. The luminescent signal was measured on a luminometer. […] Compounds were tested in dose-response format and the inhibition of kinase activity was calculated at each concentration of compound. To determine the IC50 (concentration of compound required to inhibit 50% of the enzyme activity) data were fit to a plot of % inhibition vs Log10 compound concentration using a sigmoidal fit with a variable slope and fixing the maximum to 100% and the minimum to 0%. To determine the Ki values the Cheng-Prusoff equation was utilized (Ki=IC50/(1+[S]/Km).
In vitro inhibitory activities for PKA were reported as selectivity ratio vs. ROCK-2.

A further assay concerns the target ROCK2 (Homo sapiens, UniProt O75116). Nature of the assay: In vitro inhibitory activity assay ROCK2 (ADP-Glo). To be noted: ATP 200 μM, Cheng-Prusoff; read-out: ROCK2 (Ki, range of activity). The procedure: as §1, §2

For orientation: Ki means a dissociation constant, usually derived from enzyme kinetics or from competition with a known ligand.

Chain of ROCK2 (O75116 whole entry): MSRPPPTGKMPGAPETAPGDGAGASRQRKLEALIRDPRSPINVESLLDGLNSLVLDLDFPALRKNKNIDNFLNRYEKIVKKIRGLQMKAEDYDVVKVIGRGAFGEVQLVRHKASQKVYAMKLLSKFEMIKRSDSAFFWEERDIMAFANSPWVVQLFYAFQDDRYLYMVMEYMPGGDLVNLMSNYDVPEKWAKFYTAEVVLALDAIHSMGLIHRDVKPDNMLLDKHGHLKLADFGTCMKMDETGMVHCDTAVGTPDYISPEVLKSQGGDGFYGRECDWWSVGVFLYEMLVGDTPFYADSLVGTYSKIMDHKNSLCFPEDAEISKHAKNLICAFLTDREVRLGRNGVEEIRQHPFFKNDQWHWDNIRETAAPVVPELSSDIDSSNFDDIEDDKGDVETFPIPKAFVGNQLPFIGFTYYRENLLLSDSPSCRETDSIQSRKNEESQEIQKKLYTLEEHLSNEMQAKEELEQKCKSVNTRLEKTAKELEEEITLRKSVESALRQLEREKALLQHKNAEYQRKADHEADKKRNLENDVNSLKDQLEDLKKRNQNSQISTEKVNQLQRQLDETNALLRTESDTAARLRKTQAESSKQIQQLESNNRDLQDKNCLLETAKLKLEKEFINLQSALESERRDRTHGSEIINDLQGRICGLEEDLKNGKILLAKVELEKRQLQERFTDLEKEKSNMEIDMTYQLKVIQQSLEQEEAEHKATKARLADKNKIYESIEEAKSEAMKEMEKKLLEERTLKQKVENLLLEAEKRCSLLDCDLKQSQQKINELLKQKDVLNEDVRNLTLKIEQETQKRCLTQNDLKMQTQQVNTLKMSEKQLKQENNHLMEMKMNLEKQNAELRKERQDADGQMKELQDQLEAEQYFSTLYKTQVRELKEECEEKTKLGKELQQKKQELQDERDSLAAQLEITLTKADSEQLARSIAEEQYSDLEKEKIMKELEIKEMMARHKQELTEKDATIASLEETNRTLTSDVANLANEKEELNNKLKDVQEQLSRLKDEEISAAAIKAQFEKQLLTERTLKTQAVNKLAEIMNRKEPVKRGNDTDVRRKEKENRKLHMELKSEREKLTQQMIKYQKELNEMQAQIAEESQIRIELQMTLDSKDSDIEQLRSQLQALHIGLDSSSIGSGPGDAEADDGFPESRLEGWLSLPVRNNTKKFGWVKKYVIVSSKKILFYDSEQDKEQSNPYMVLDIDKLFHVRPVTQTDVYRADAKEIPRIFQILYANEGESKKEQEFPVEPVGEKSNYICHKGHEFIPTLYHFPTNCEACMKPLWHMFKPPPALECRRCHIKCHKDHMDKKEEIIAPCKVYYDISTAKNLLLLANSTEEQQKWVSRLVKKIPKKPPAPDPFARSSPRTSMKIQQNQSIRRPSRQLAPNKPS
Chain of ROCK1 (Q13464 whole entry): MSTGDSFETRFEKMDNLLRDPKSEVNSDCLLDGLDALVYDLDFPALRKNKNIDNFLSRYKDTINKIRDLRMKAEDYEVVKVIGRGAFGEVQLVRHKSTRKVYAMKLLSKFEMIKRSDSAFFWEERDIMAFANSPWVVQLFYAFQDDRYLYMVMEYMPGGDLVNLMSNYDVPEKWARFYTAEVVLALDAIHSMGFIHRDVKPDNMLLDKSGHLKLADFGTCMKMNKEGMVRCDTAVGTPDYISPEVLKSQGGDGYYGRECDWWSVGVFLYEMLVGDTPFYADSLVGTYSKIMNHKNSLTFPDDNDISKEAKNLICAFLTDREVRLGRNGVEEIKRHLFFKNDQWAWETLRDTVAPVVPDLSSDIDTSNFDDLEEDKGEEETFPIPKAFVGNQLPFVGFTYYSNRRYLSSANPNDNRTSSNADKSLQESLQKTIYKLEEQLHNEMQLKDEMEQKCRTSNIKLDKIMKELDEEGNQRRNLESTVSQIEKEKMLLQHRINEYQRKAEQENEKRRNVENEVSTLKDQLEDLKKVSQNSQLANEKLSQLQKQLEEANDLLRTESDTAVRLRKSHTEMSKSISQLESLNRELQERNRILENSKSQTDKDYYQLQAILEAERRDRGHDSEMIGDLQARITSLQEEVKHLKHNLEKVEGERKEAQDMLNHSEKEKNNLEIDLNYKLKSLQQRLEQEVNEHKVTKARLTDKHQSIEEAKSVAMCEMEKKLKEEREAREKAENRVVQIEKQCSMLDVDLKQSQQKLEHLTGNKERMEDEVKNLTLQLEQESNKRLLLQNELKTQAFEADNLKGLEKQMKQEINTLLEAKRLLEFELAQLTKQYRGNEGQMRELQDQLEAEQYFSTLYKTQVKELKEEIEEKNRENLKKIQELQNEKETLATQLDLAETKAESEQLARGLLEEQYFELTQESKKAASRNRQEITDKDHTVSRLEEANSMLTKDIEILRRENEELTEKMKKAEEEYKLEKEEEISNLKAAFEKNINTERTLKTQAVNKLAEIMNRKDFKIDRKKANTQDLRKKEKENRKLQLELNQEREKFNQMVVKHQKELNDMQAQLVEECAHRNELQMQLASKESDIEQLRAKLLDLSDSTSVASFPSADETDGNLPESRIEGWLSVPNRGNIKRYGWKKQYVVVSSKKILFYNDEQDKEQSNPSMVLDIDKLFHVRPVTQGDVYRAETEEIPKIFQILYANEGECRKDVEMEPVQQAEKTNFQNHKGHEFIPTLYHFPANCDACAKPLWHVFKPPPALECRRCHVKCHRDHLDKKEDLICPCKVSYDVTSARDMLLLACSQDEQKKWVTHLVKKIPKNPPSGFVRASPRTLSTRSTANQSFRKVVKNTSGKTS

`Nc1nccc(-c2cnc(NCc3cccc(C(=O)NC4CN(C5COC5)C4)c3)c3c2OCC3)n1` [Example 24, 3-(((7-(2-aminopyrimidin-4-yl)-2,3-dihydrofuro[3,2-c]pyridin-4-yl)amino)methyl)-N-(1-(oxetan-3-yl)azetidin-3-yl)benzamide]: the Ki at ROCK1 and on ROCK2 was no more than 3 nM throughout. Also, the “Ratio (PKA/ROCK2)” value at PKA was “*** (ratio≥10)”.

As to `CO[C@H]1C[C@H](NC(=O)c2cccc(CNc3ncc(-c4ccnc(N)n4)c4c3CCO4)c2)C1` [Example 41, 3-(((7-(2-Aminopyrimidin-4-yl)-2,3-dihydrofuro[3,2-c]pyridin-4-yl)amino)methyl)-N-((1R,3R)-3-methoxycyclobutyl)benzamide], the Ki on ROCK1 and on ROCK2 was no more than 3 nM in each case. Besides, the “Ratio (PKA/ROCK2)” value on PKA is on record as “*** (ratio≥10)”.

Regarding `Nc1nccc(-c2cnc(NCc3cccc(C(=O)NC4CCOCC4)c3F)c3c2OCC3)n1` [Example 56, 3-(((7-(2-Aminopyrimidin-4-yl)-2,3-dihydrofuro[3,2-c]pyridin-4-yl)amino)methyl)-2-fluoro-N-(tetrahydro-2H-pyran-4-yl)benzamide], the Ki at ROCK1 and at ROCK2 was 3 to 30 nM throughout. The “Ratio (PKA/ROCK2)” value at PKA is recorded as “*** (ratio≥10)”.

Consider `CC1(CNC(=O)c2cccc(CNc3ncc(-c4ccnc(N)n4)c4c3CCO4)c2)CC1` [Example 30, 3-(((7-(2-Aminopyrimidin-4-yl)-2,3-dihydrofuro[3,2-c]pyridin-4-yl)amino)methyl)-N-((1-methylcyclopropyl)methyl)benzamide], for which the Ki at ROCK1 and on ROCK2 was no more than 3 nM throughout. For the same compound, the “Ratio (PKA/ROCK2)” value on PKA is “** (5≤ratio<10)”.

Regarding `Nc1nccc(-c2cnc(NCc3cccc(C(=O)N[C@H]4C[C@H]4F)c3)c3c2OCC3)n1` [Example 47, 3-(((7-(2-Aminopyrimidin-4-yl)-2,3-dihydrofuro[3,2-c]pyridin-4-yl)amino)methyl)-N-((1S,2R)-2-fluorocyclopropyl)benzamide], the Ki on ROCK1 and on ROCK2 was no more than 3 nM each time. Besides, the “Ratio (PKA/ROCK2)” value at PKA was “*** (ratio≥10)”.

In the case of `CN1CCC(NC(=O)c2cccc(CNc3ncc(-c4ccnc(N)n4)c4c3CCO4)c2)CC1` [Example 13, 3-(((7-(2-Aminopyrimidin-4-yl)-2,3-dihydrofuro[3,2-c]pyridin-4-yl)amino)methyl)-N-(1-methylpiperidin-4-yl)benzamide], the Ki at ROCK1 and on ROCK2 was no more than 3 nM in each case. Also, the “Ratio (PKA/ROCK2)” value on PKA is “*** (ratio≥10)”.

For the compound `Nc1nccc(-c2cnc(NCc3cccc(C(=O)NC4CC4F)c3)c3c2OCC3)n1` (single isomer, unassigned) [Example 45, Trans 3-(((7-(2-Aminopyrimidin-4-yl)-2,3-dihydrofuro[3,2-c]pyridin-4-yl)amino)methyl)-N-(2-fluorocyclopropyl)benzamide], the Ki on ROCK1 and at ROCK2 was no more than 3 nM throughout. The “Ratio (PKA/ROCK2)” value at PKA is recorded as “*** (ratio≥10)”.

On to `Nc1nccc(-c2cnc(NCc3cccc(C(=O)N[C@H]4C[C@@H](F)C4)c3)c3c2OCC3)n1` [Example 48, 3-(((7-(2-Aminopyrimidin-4-yl)-2,3-dihydrofuro[3,2-c]pyridin-4-yl)amino)methyl)-N-((1S,3S)-3-fluorocyclobutyl)benzamide], for which the Ki at ROCK1 and on ROCK2 was no more than 3 nM throughout. For the same compound, the “Ratio (PKA/ROCK2)” value at PKA is listed as “** (5≤ratio<10)”.

On to `[2H]C([2H])([2H])OCCCNC(=O)c1cccc(CNc2ncc(-c3ccnc(N)n3)c3c2CCO3)c1` [Example 6, 3-(((7-(2-aminopyrimidin-4-yl)-2,3-dihydrofuro[3,2-c]pyridin-4-yl)amino)methyl)-N-(3-(methoxy-d3)propyl)benzamide], for which the Ki on ROCK1 and at ROCK2 was no more than 3 nM throughout. Further, on PKA, the “Ratio (PKA/ROCK2)” value is given as “*** (ratio≥10)”.

`C[C@@H]1CCC[C@H](C)N1CCNC(=O)c1cccc(CNc2ncc(-c3ccnc(N)n3)c3c2CCO3)c1` [Example 19, 3-(((7-(2-Aminopyrimidin-4-yl)-2,3-dihydrofuro[3,2-c]pyridin-4-yl)amino)methyl)-N-(2-((2R,6S)-2,6-dimethylpiperidin-1-yl)ethyl)benzamide]: the Ki at ROCK1 and on ROCK2 was no more than 3 nM throughout. In addition, the “Ratio (PKA/ROCK2)” value on PKA was “*** (ratio≥10)”.

Take `COCCCC(=O)Nc1cccc(CNc2ncc(-c3ccnc(N)n3)c3c2CCO3)c1` [Example 64, N-(3-(((7-(2-aminopyrimidin-4-yl)-2,3-dihydrofuro[3,2-c]pyridin-4-yl)amino)methyl)phenyl)-4-methoxybutanamide]: the Ki on ROCK1 is 3 to 30 nM; at ROCK2, no more than 3 nM. In addition, at PKA, the “Ratio (PKA/ROCK2)” value is “*** (ratio≥10)”.

As to `CNC(=O)c1cc(F)cc(CNc2ncc(-c3ccnc(N)n3)c3c2CCO3)c1` [Example 59, 3-(((7-(2-Aminopyrimidin-4-yl)-2,3-dihydrofuro[3,2-c]pyridin-4-yl)amino)methyl)-5-fluoro-N-methylbenzamide], the Ki on ROCK1 and at ROCK2 was no more than 3 nM each time. The “Ratio (PKA/ROCK2)” value on PKA is reported as “*** (ratio≥10)”.

Regarding `CN1CCOC(CNC(=O)c2cccc(CNc3ncc(-c4ccnc(N)n4)c4c3CCO4)c2)C1` (single isomer, unassigned) [Example 34, 3-(((7-(2-Aminopyrimidin-4-yl)-2,3-dihydrofuro[3,2-c]pyridin-4-yl)amino)methyl)-N-((4-methylmorpholin-2-yl)methyl)benzamide], the Ki on ROCK1 and on ROCK2 was no more than 3 nM in each case. Moreover, the “Ratio (PKA/ROCK2)” value at PKA is “*** (ratio≥10)”.

In the case of `Nc1nccc(-c2cnc(NCc3cccc(C(=O)N[C@H]4[C@@H]5COC[C@@H]54)c3)c3c2OCC3)n1` [Example 23, 3-(((7-(2-Aminopyrimidin-4-yl)-2,3-dihydrofuro[3,2-c]pyridin-4-yl)amino)methyl)-N-((1R,5S,6r)-3-oxabicyclo[3.1.0]hexan-6-yl)benzamide], the Ki on ROCK1 and on ROCK2 was no more than 3 nM in each case. Also, the “Ratio (PKA/ROCK2)” value at PKA was “*** (ratio≥10)”.

In the case of `COC(C)(C)CNC(=O)c1cccc(CNc2ncc(-c3ccnc(N)n3)c3c2CCO3)c1` [Example 27, 3-(((7-(2-Aminopyrimidin-4-yl)-2,3-dihydrofuro[3,2-c]pyridin-4-yl)amino)methyl)-N-(2-methoxy-2-methylpropyl)benzamide], the Ki at ROCK1 and at ROCK2 was no more than 3 nM each time. On PKA, the “Ratio (PKA/ROCK2)” value is “*** (ratio≥10)”.

As to `CC1(C)CC(NC(=O)c2cccc(CNc3ncc(-c4ccnc(N)n4)c4c3CCO4)c2)CO1` (stereo not drawn) [Example 3, 3-(((7-(2-Aminopyrimidin-4-yl)-2,3-dihydrofuro[3,2-c]pyridin-4-yl)amino)methyl)-N-(5,5-dimethyltetrahydrofuran-3-yl)benzamide], the Ki at ROCK1 and on ROCK2 was no more than 3 nM each time. Moreover, the “Ratio (PKA/ROCK2)” value at PKA is recorded as “*** (ratio≥10)”.

For `CCOCCNC(=O)c1cccc(CNc2ncc(-c3ccnc(N)n3)c3c2CCO3)c1` [Example 20, 3-(((7-(2-Aminopyrimidin-4-yl)-2,3-dihydrofuro[3,2-c]pyridin-4-yl)amino)methyl)-N-(2-ethoxyethyl)benzamide], the Ki at ROCK1 and on ROCK2 was no more than 3 nM throughout. In addition, the “Ratio (PKA/ROCK2)” value on PKA is “*** (ratio≥10)”.

As to `CNC(=O)c1cccc(CNc2ncc(-c3ccnc(N)n3)c3c2CCO3)c1` [Example 21, 3-(((7-(2-Aminopyrimidin-4-yl)-2,3-dihydrofuro[3,2-c]pyridin-4-yl)amino)methyl)-N-methylbenzamide], the results for the Ki at ROCK1 and at ROCK2 were 3 to 30 nM and no more than 3 nM, respectively. For the same compound, on PKA, the “Ratio (PKA/ROCK2)” value was “*** (ratio≥10)”.

`COCCCNC(=O)c1cc(F)cc(CNc2ncc(-c3ccnc(N)n3)c3c2CCO3)c1` [Example 60, 3-(((7-(2-Aminopyrimidin-4-yl)-2,3-dihydrofuro[3,2-c]pyridin-4-yl)amino)methyl)-5-fluoro-N-(3-methoxypropyl)benzamide]: the Ki at ROCK1 and on ROCK2 was no more than 3 nM in each case. Moreover, the “Ratio (PKA/ROCK2)” value on PKA is “*** (ratio≥10)”.

These data come from patent publication US20240092790A1, “DIHYDROFUROPYRIDINE DERIVATIVES AS RHO- KINASE INHIBITORS” (CHIESI FARMACEUTICI S.P.A., priority 2020, published 2024).
